Assay results published in patent US7728003B2, “5-oxo-5,8-dihydro-pyrido-pyrimidines as inhibitors of c-fms kinase” (Janssen Pharmaceutica N.V., priority 2005, dated 2010).

Molecular target: c-fms (Homo sapiens, UniProt P07333)
Test: c-fms autophosphorylation, fluorescence polarization competition immunoassay
Type: biochemical
Conditions: 10 nM c-fms, 1 mM ATP; for inhibition at 0.1 µM: test concentration 0.1 μM, read-out: c-fms Autophosphorylation Percent Inhibition, % @ 0.1 μM; for inhibition at 1 µM: test concentration 1 μM, read-out: c-fms Autophosphorylation Percent Inhibition, % @ 1 μM
Procedure: The assay buffer used was 100 mM 4-(2-hydroxyethyl)piperazine 1-ethanesulfonic acid (HEPES), pH 7.5, 1 mM 1,4-dithio-DL-threitol (DTT), 0.01% (v/v) Tween-20. Compounds were diluted in assay buffer containing 4% dimethylsulfoxide (DMSO) just prior to the assay. To each well, 5 μL of compound were added followed by the addition of 3 μL of a mix containing 33 nM c-fms and 16.7 mM MgCl2 (Sigma) in assay buffer. The kinase reaction was initiated by adding 2 μL of 5 mM ATP (Sigma) in assay buffer. The final concentrations in the assay were 10 nM c-fms, 1 mM ATP, 5 mM MgCl2, 2% DMSO. Control reactions were ran in each plate: in positive and negative control wells, assay buffer (made 4% in DMSO) was substituted for the compound; in addition, positive control wells received 1.2 μL of 50 mM ethylenediaminetetraaceticacid (EDTA).
The plates were incubated at room temperature for 45 min. At the end of the incubation, the reaction was quenched with 1.2 μL of 50 mM EDTA (EDTA was not added to the positive control wells at this point; see above). Following a 5-min incubation, each well received 10 μL of a 1:1:3 mixture of anti-phosphotyrosine antibody, 10X, PTK green tracer, 10X (vortexed), FP dilution buffer, respectively (all from PanVera, cat. # P2837). The plate was covered, incubated for 30 min at room temperature and the fluorescence polarization was read on the Analyst. The instrument settings were: 485 nm excitation filter; 530 nm emission filter; Z height: middle of well; G factor: 0.93.
The percent inhibition is shown in Table 1 at the indicated test concentration. The IC50 shown in Table 2 are averages of three independent measurements.

Sequence of c-fms (P07333 20-972): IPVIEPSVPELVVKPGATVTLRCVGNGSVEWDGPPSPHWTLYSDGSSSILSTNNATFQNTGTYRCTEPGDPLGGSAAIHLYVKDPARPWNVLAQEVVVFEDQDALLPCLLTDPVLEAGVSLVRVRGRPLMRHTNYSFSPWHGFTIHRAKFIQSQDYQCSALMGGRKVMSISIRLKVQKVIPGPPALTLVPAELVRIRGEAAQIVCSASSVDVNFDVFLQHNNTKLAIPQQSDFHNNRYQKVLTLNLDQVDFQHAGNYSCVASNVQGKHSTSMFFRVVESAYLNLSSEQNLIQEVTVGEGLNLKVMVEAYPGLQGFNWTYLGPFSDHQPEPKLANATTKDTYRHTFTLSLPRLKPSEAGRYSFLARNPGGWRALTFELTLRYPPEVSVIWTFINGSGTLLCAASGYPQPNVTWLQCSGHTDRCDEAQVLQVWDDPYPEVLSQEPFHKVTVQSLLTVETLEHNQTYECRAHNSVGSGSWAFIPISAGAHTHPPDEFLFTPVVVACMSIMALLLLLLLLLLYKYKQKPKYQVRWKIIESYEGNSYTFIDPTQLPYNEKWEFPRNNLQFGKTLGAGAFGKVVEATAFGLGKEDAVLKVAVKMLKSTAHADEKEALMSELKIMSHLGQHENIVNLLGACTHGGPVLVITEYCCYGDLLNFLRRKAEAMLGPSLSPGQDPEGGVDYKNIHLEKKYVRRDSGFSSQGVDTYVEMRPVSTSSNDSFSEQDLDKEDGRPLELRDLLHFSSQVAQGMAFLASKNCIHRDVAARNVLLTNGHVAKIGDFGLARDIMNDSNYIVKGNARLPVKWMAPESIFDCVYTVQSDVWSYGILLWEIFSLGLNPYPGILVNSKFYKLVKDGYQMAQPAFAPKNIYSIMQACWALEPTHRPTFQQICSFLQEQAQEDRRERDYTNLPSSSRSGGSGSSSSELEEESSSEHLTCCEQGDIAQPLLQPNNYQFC

inhibition at 0.1 µM [%]	inhibition at 1 µM [%]	IC50 (average of three independent measurements) [nM]	Structure (SMILES)
5	24		CNC(=O)c1cn(-c2ccc3c(c2)CCC3)c2nc(NCCCN3CCCC3=O)ncc2c1=O [Cpd 14, 8-Indan-5-yl-5-oxo-2-[3-(2-oxo-pyrrolidin-1-yl)-propylamino]-5,8-dihydro-pyrido[2,3-d]pyrimidine-6-carboxylic acid methylamide]
16	45		NC(=O)c1cn(-c2ccc3c(c2)CCC3)c2nc(NCCCN3CCCC3)ncc2c1=O [Cpd 9, 8-Indan-5-yl-5-oxo-2-(3-pyrrolidin-1-yl-propylamino)-5,8-dihydro-pyrido[2,3-d]pyrimidine-6-carboxylic acid amide]
25	54		CONC(=O)c1cn(-c2ccc3c(c2)CCC3)c2nc(NCCN3CCOCC3)ncc2c1=O [Cpd 26, 8-Indan-5-yl-2-(2-morpholin-4-yl-ethylamino)-5-oxo-5,8-dihydro-pyrido[2,3-d]pyrimidine-6-carboxylic acid methoxy-amide]
40	72		CONC(=O)c1cn(-c2ccc3c(c2)CCC3)c2nc(NCCCN3CCCC3=O)ncc2c1=O [Cpd 22, 8-Indan-5-yl-5-oxo-2-[3-(2-oxo-pyrrolidin-1-yl)-propylamino]-5,8-dihydro-pyrido[2,3-d]pyrimidine-6-carboxylic acid methoxy-amide]
43	67		CONC(=O)c1cn(C2CCCCC2)c2nc(NCCCN3CCN(C)CC3)ncc2c1=O [Cpd 45, 8-Cyclohexyl-2-[3-(4-methyl-piperazin-1-yl)-propylamino]-5-oxo-5,8-dihydro-pyrido[2,3-d]pyrimidine-6-carboxylic acid methoxy-amide]
0	18		CONC(=O)c1cn(C2CCCCC2)c2nc(NCCN3CCCC3)ncc2c1=O [Cpd 48, 8-Cyclohexyl-5-oxo-2-(2-pyrrolidin-1-yl-ethylamino)-5,8-dihydro-pyrido[2,3-d]pyrimidine-6-carboxylic acid methoxy-amide]
24	69.1		CN1CCN(CCCNc2ncc3c(=O)c(C(N)=O)cn(-c4ccc5c(c4)CCC5)c3n2)CC1 [Cpd 1, 8-Indan-5-yl-2-[4-(4-methyl-piperazin-1-yl)-propylamino]-5-oxo-5,8-dihydro-pyrido[2,3-d]pyrimidine-6-carboxylic acid amide]
17	44		CONC(=O)c1cn(C2CCCCC2)c2nc(NCCN3CCOCC3)ncc2c1=O [Cpd 51, 8-Cyclohexyl-2-(2-morpholin-4-yl-ethylamino)-5-oxo-5,8-dihydro-pyrido[2,3-d]pyrimidine-6-carboxylic acid methoxy-amide]
		2300	NC(=O)c1cn(-c2ccc3c(c2)CCC3)c2nc(NCCCn3ccnc3)ncc2c1=O [Cpd 3, 2-(3-Imidazol-1-yl-propylamino)-8-indan-5-yl-5-oxo-5,8-dihydro-pyrido[2,3-d]pyrimidine-6-carboxylic acid amide]

Further lines, the compound ahead of its results:

Structure (SMILES)	inhibition at 0.1 µM [%]	inhibition at 1 µM [%]	IC50 (average of three independent measurements) [nM]
CNC(=O)c1cn(C2CCCCC2)c2nc(NCCCN3CCOCC3)ncc2c1=O [Cpd 55, 8-Cyclohexyl-2-(3-morpholin-4-yl-propylamino)-5-oxo-5,8-dihydro-pyrido[2,3-d]pyrimidine-6-carboxylic acid methylamide]	13	23	
NC(=O)c1cn(C2CCCCC2)c2nc(NCCCN3CCOCC3)ncc2c1=O [Cpd 30, 8-Cyclohexyl-2-(3-morpholin-4-yl-propylamino)-5-oxo-5,8-dihydro-pyrido[2,3-d]pyrimidine-6-carboxylic acid amide]	24	68	
NC(=O)c1cn(C2CCCCC2)c2nc(NCCCN3CCCC3=O)ncc2c1=O [Cpd 32, 8-Cyclohexyl-5-oxo-2-[3-(2-oxo-pyrrolidin-1-yl)-propylamino]-5,8-dihydro-pyrido[2,3-d]pyrimidine-6-carboxylic acid amide]	17	52	
COc1cc(CNc2ncc3c(=O)c(C(N)=O)cn(-c4ccc5c(c4)CCC5)c3n2)cc(OC)c1 [Cpd 11, 2-(3,5-Dimethoxy-benzylamino)-8-indan-5-yl-5-oxo-5,8-dihydro-pyrido[2,3-d]pyrimidine-6-carboxylic acid amide]	0	50	
CNC(=O)c1cn(-c2ccc3c(c2)CCC3)c2nc(NCCCN(C)C)ncc2c1=O [Cpd 12, 2-(3-Dimethylamino-propylamino)-8-indan-5-yl-5-oxo-5,8-dihydro-pyrido[2,3-d]pyrimidine-6-carboxylic acid methylamide]	2	13	
COCCNc1ncc2c(=O)c(C(=O)NOC)cn(C3CCCCC3)c2n1 [Cpd 47, 8-Cyclohexyl-2-(2-methoxy-ethylamino)-5-oxo-5,8-dihydro-pyrido[2,3-d]pyrimidine-6-carboxylic acid methoxy-amide]	31	57	
CNC(=O)c1cn(C2CCCCC2)c2nc(NCCc3ccc(OC)cc3)ncc2c1=O [Cpd 58, 8-Cyclohexyl-2-[2-(4-methoxy-phenyl)-ethylamino]-5-oxo-5,8-dihydro-pyrido[2,3-d]pyrimidine-6-carboxylic acid methylamide]	13	26	
COCCCNc1ncc2c(=O)c(C(N)=O)cn(C3CCCCC3)c2n1 [Cpd 31, 8-Cyclohexyl-2-(3-methoxy-propylamino)-5-oxo-5,8-dihydro-pyrido[2,3-d]pyrimidine-6-carboxylic acid amide]	25	62	
NC(=O)c1cn(C2CCCCC2)c2nc(NCCN3CCCC3)ncc2c1=O [Cpd 36, 8-Cyclohexyl-5-oxo-2-(2-pyrrolidin-1-yl-ethylamino)-5,8-dihydro-pyrido[2,3-d]pyrimidine-6-carboxylic acid amide]	5	49	
CONC(=O)c1cn(C2CCCCC2)c2nc(NCCCn3ccnc3)ncc2c1=O [Cpd 41, 8-Cyclohexyl-2-(3-imidazol-1-yl-propylamino)-5-oxo-5,8-dihydro-pyrido[2,3-d]pyrimidine-6-carboxylic acid methoxy-amide]	22	45	
CONC(=O)c1cn(C2CCCCC2)c2nc(NCCCN3CCOCC3)ncc2c1=O [Cpd 43, 8-Cyclohexyl-2-(3-morpholin-4-yl-propylamino)-5-oxo-5,8-dihydro-pyrido[2,3-d]pyrimidine-6-carboxylic acid methoxy-amide]	32	60	
CNC(=O)c1cn(-c2ccc3c(c2)CCC3)c2nc(NCCCN3CCOCC3)ncc2c1=O [Cpd 13, 8-Indan-5-yl-2-(3-morpholin-4-yl-propylamino)-5-oxo-5,8-dihydro-pyrido[2,3-d]pyrimidine-6-carboxylic acid methylamide]	7	27	
CONC(=O)c1cn(-c2ccc3c(c2)CCC3)c2nc(NCCCN(C)C)ncc2c1=O [Cpd 20, 2-(3-Dimethylamino-propylamino)-8-indan-5-yl-5-oxo-5,8-dihydro-pyrido[2,3-d]pyrimidine-6-carboxylic acid methoxy-amide]	20	52	
